According to patent publication US20200368247A1, “CENICRIVIROC FOR THE TREATMENT OF FIBROSIS” (Tobira Therapeutics, Inc., priority 2014, published 2020):

Key:
[1] = molecular target: T1, CCR2 (Homo sapiens, UniProt P41597); assay: CCR2 receptor occupancy / MCP-1-induced CCR2 internalization in PBMCs, flow cytometry; format: cell-based
T1 construct: endogenous in cells; host or cells: monocytes within PBMCs from HIV+ and HIV- subjects
T1 sequence (P41597 1-360 isoform P41597-2): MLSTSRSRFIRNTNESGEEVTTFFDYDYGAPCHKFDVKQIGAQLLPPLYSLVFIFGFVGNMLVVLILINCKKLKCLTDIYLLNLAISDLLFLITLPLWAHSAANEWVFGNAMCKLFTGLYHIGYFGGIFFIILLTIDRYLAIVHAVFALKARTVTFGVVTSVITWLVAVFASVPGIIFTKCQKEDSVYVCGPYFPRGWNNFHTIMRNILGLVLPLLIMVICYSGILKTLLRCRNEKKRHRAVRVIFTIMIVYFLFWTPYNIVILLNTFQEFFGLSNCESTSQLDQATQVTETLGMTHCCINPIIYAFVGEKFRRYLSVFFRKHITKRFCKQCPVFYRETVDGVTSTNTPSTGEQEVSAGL
Method: (§1) The capacity of each drug to inhibit CCR5 or CCR2 internalization was evaluated. Cell-surface expression of CCR5 and CCR2 was assessed by flow cytometry, and fluorescence values were converted into molecules of equivalent soluble fluorescence (MESF).

[2] = Study 201 safety (adverse events, laboratory); format: in vivo
Method: Participants were required to be antiretroviral treatment-experienced, CCR5 antagonist-naive, with HIV-1 RNA levels of at least 5000 copies/mL and CD4+ cell counts of at least 250 cells/mm^3 was performed.
There were no deaths, SAEs, or other significant AEs, and there were no discontinuations because of an AE. Most treatment-emergent AEs were mild or moderate in severity. […] The most common (≥10%) treatment-emergent AEs in this study were nausea (18.5%), diarrhea (16.7%), headache (14.8%), and fatigue (11.0%).
There were 6 subjects with ALT and/or AST elevations in the 25 mg (2 subjects), 50 mg (2 subjects), 100 mg (1 subject), and 150 mg (1 subject) dose groups, and 1 subject with an AST elevation in the placebo group during the observation period. All elevations were Grade 1, were isolated except in 2 subjects (both in the 50-mg dose group) who had more than a single elevation, and resolved without sequelae. […] The AST elevations observed in subjects in the 100 mg and 150 mg dose groups during treatment (observed in 1 subject in each dose group), returned to normal values during continuation of treatment.

[3] = molecular target: CCR5 (Homo sapiens, UniProt P51681); assay: CCR5 receptor occupancy / RANTES-induced CCR5 internalization in PBMCs, flow cytometry; format: cell-based; conditions: PBMCs
Method: as §1

[4] = tested on: NASH mice; assay: STAM mouse model of NASH, anti-HCC effects, week 18; conditions: for Body weight / Maximum diameter of visible tumor nodules (mm) / mice with GS-positive nodules / mice with HCC lesions (HE staining): week 18; for mice that died (survival analysis): 6 to 18 weeks
Method: Group 1-Vehicle: Eighteen NASH mice were orally administered vehicle at a volume of 10 mL/kg twice daily (9:00 and 19:00) from 6 weeks of age.

[5] = Chronic (3- and 9-month) monkey toxicity studies; format: in vivo; conditions: 1000 mg/kg/day, 3- and 9-month monkey studies
[6] = tested on: HIV-1; assay: Study 201 PK/PD Emax model; format: in vivo, human
Source text: Drug response was characterized using the following maximum effect (Emax) model:
where E is effect, E0 is the baseline effect (fixed to 0), Imax is the maximum inhibition, C denotes the PK variable (AUC0-24, Cmax, or steady-state concentration [Css]), IC50 is the value of the PK variable which corresponds to 50% of the maximum inhibition and y is the shape parameter which describes the degree of sigmoidicity.

[7] = tested on: RANTES-induced Ca2+ mobilization; assay: RANTES-induced Ca2+ mobilization; format: cell-based
[8] = tested on: male CD-1 mice with unilateral ureter occlusion; assay: Mouse UUO model of renal fibrosis; format: in vivo
Method: Test animals were allocated to weight-matched treatment groups on the day prior to the surgical procedure (Day −1). Male CD-1 mice (N=51; age, 7-8 weeks) underwent either sham surgery or total ligation of the right ureter, i.e. UUO, via aseptic laparotomy (FIG. 12). […] Another group received the anti-transforming growth factor TGF-β1 antibody, compound 1D11 (positive control) at 3 mg/kg/day from Days −1 to 4, injected intraperitoneally once daily, and vehicle control from Days 0 to 5. […] On Day 5, animals were anaesthetised, blood and tissues were collected prior to sacrifice.
Study endpoints included: a) body and kidney weights; b) fibrosis in obstructed kidney evaluated via histological quantitative image analysis of picrosirius red staining (ten images/depth/kidney obtained and assessed in a blinded fashion using light microscopy [at 200×] to enable sampling of 60-70% of the renal cortical area) and quantified by a composite Collagen Volume Fraction (CVF [% total area imaged]) score expressed as the average positive stain across three anatomically distinct ([…] apart) tissue sections, or depths, from the obstructed kidney; c) hydroxyproline content of frozen renal cortical tissue biopsies as assessed by biochemical analyses; d) mRNA expression of profibrotic and inflammatory biomarkers (including MCP-1, Collagen 1a1, Collagen 3a1, TGF-β1, Fibronectin-1, α-smooth muscle actin (α-SMA) and connective tissue growth factor-1 (CTGF-1); assessed via Luminex® (Life Technologies™, Carlsbad, Calif., USA) assay with relative expression normalised to HPRT (hypoxanthine phosphoribosyltransferase).
Data are expressed as mean±standard error of mean (SEM). Statistical analyses were performed using GraphPad Prism® (GraphPad Software, Inc., San Diego, Calif., USA). Treatment differences between sham-surgery+vehiclecontrol and UUO+vehicle-control groups, and between UUO+vehicle-control and UUO+compound-1D11 (positive control) groups, were analysed by unpaired t-Test. Treatment differences between UUO+vehicle-control and CVC-dose groups were analysed by one-way ANOVA (analysis of variance) with Dunnett's test (post-hoc).

[9] = CVC-high 100 mg/kg/day, listed as Cenicriviroc
[10] = CVC-low 20 mg/kg/day, listed as Cenicriviroc
[11] = CVC 7 and 20 mg/kg/day, compound 1D11

Chain of CCR5 (P51681 whole entry): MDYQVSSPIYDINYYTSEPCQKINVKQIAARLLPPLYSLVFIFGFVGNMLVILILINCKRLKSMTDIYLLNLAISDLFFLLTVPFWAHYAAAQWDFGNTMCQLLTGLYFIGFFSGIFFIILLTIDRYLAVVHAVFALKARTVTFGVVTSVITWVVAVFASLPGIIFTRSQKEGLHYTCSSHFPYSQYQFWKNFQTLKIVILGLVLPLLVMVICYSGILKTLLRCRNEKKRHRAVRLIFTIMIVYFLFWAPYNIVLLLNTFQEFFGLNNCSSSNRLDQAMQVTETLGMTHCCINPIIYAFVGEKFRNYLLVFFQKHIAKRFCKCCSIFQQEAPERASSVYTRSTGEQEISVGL

CCCCOCCOc1ccc(-c2ccc3c(c2)/C=C(/C(=O)Nc2ccc([S@@+]([O-])Cc4cncn4CCC)cc2)CCCN3CC(C)C)cc1 [CVC, (S)-8-[4-(2-Butoxyethoxy)phenyl]-1-isobutyl-N-(4-{[(1-propyl-1H-imidazol-5-yl)methyl]sulfinyl}phenyl)-1,2,3,4-tetrahydro-1-benzazocine-5-carboxamide]
concentration required to reach >80% receptor occupancy ([1]; CCR2, average): 1.8 nM | prevention of MCP-1-induced CCR2 internalization ([1]; PBMCs): at lower concentrations than BMS-22 | CCR2 cell-surface expression ([1]; in the absence of MCP-1, monocytes): decreased cell-surface expression on monocytes | subjects with ALT and/or AST elevations (Grade 1) ([2]; 25 mg): 2 subjects | subjects with ALT and/or AST elevations (Grade 1) ([2]; 50 mg): 2 subjects | subjects with ALT and/or AST elevations (Grade 1) ([2]; 100 mg): 1 subject | subjects with ALT and/or AST elevations (Grade 1) ([2]; 150 mg): 1 subject | tolerability ([2]; 25 to 150 mg once daily, 10 days): generally well tolerated at the doses studied | prevention of RANTES-induced CCR5 internalization [3]: at lower effective concentrations than MVC | Body weight ([4]; CVC-high 100 mg/kg/day): 20.8 ± 2.7 g | Maximum diameter of visible tumor nodules (mm) ([4]; CVC-high 100 mg/kg/day): 5.3±5.1 mm | Body weight [4, 9]: 20.8 ± 2.7 g | Maximum diameter of visible tumor nodules (mm) [4, 9]: 5.3 ± 5.1 mm | mice that died (survival analysis) ([4]; CVC-high): Five out of twelve | mice with GS-positive nodules ([4]; CVC-high): seven out of seven | mice with HCC lesions (HE staining) ([4]; CVC-high): six out of seven | Body weight ([4]; CVC-low 20 mg/kg/day): 22.9 ± 3.5 g | Maximum diameter of visible tumor nodules (mm) ([4]; CVC-low 20 mg/kg/day): 4.8±5.4 mm | Body weight [4, 10]: 22.9 ± 3.5 g | Maximum diameter of visible tumor nodules (mm) [4, 10]: 4.8 ± 5.4 mm | mice that died (survival analysis) ([4]; CVC-low): Six out of twelve | mice with GS-positive nodules ([4]; CVC-low): five out of six | mice with HCC lesions (HE staining) ([4]; CVC-low): five out of six | inflammation in clinical pathology parameters or tissue incl. liver [5]: No indication of inflammation | percent of the maximum inhibitory effect at average Css ([6]; 25 mg): 54.9% | percent of the maximum inhibitory effect at average Css ([6]; 50 mg): 79.8% | percent of the maximum inhibitory effect at average Css ([6]; 75 mg): 85.9% | percent of the maximum inhibitory effect at average Css ([6]; 150 mg): 95.9% | Emax in the PK/PD model (HIV-1 RNA) ([6]; Emax model): −1.43 log10 copies/mL | RANTES-induced Ca2+ mobilization [7]: blocked | effect on body weight ([8]; CVC 7 mg/kg/day, compound 1D11 3 mg/kg/day, Day 5): no effect on body weight | tolerability in UUO mice ([8]; CVC 100 mg/kg/day): terminated early due to moribundity | effect on obstructed kidney hydroxyproline content ([8]; CVC 7 and 20 mg/kg/day): Neither dose of CVC tested affected UUO-induced increases | Collagen 1a1, Collagen 3a1, TGF-β1 and Fibronectin-1 mRNA expression vs UUO+vehicle-control [8, 11]: did not reach statistical significance | MCP-1, α-SMA and CTGF-1 mRNA expression vs UUO+vehicle-control [8, 11]: did not have significant effects
